Tests used:
[1] = system: ITK phosphorylation of its substrate, PLCγ1, at Y783; test: ITK target modulation assay (phospho-Y783 PLCγ1 immunoblot in Jurkat T cells); type: cell-based; details: Homo sapiens, Jurkat, 2 h, 2 hours compound, CD3/CD28 Dynabeads stimulation 100 sec, anti-phospho-Y783 PLCγ1 immunoblot, read-out: PLC-γ Inhibition IC50
Method in brief: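 Human Jurkat T cells (4 million per tube) were pretreated with compound for 2 hours at 37° C. They were then stimulated with CD3/CD28 Dynabeads (1 bead per cell) for 100 sec and lysed. Lysates were resolved by SDS-PAGE and immunoblotted for phospho-PLCγ1, with HRP secondary antibody and ECL detection.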

ITK = molecular target: T1, ITK (Homo sapiens, UniProt Q08881); test: ITK inhibitor binding potency (LanthaScreen competitive binding assay); details: TR-FRET competitive binding, 10 nM ITK, 50 nM kinase tracer-236; pre-incubation condition not given; read-out: ITK Inhibition IC50
T1 sequence (Q08881 1-620): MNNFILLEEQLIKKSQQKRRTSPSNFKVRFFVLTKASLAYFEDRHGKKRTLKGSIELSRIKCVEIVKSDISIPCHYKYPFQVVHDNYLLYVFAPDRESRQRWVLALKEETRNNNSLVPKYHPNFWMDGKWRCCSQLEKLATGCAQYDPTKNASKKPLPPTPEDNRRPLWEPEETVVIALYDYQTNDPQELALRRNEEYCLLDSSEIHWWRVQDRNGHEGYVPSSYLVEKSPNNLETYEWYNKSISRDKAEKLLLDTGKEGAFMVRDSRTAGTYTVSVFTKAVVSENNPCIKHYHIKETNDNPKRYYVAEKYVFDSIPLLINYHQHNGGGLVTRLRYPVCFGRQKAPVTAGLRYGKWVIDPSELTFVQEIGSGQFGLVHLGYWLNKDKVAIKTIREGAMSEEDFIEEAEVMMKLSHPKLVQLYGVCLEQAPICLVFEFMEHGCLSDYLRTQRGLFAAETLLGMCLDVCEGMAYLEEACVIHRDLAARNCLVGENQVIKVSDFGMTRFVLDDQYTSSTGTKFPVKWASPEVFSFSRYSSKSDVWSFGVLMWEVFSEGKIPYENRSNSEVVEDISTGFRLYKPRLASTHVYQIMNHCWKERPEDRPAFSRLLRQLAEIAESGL
Method in brief: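 TR-FRET tracer displacement using 10 nM ITK, 2 nM Eu-anti-GST antibody, 50 nM kinase tracer-236 in 20 mM HEPES pH 7.5, 10 mM MgCl2, 0.01% BSA, 0.0005% Tween-20, 2% DMSO. Run with or without 2 h compound–ITK pre-incubation before tracer; 11-point dose-response 20 uM–0.34 nM, IC50 from 4-parameter fit of emission ratio.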

SMILES | IC50 [1] [nM] | IC50 (ITK) [nM]
CN(C)C/C=C/C(=O)Nc1cccc(-c2cnc3[nH]cc(-c4cncc(C(N)=O)c4)c3c2)c1 [Example 10, (E)-5-(5-(3-(4-(dimethylamino)-but-2-enamido)-phenyl)-1H-pyrrolo[2,3-b]-pyridin-3-yl)-nicotinamide] | > 5000 | ≤ 100
C=CC(=O)Nc1cc(-c2cnc3[nH]cc(-c4cccc(C#N)c4)c3c2)cc(C(F)(F)F)c1 [Example 7, N-(3-(3-(3-cyano-phenyl)-1H-pyrrolo[2,3-b]-pyridin-5-yl)-5-(trifluoromethyl)-phenyl)acrylamide] | ≤ 1000 | ≤ 1000
COc1cc(-c2c[nH]c3ncc(-c4cncc(NC(=O)/C=C/CN(C)C)c4)cc23)ccn1 [Example 71, (E)-4-(dimethyl-amino)-N-(5-(3-(2-methoxypyridin-4-yl)-1H-pyrrolo[2,3-b]pyridin-5-yl)-pyridin-3-yl)but-2-enamide] | ≤ 1000 | ≤ 100
COc1cc(-c2cnc3[nH]cc(-c4cccc(C#N)c4)c3c2)cc(N(C)C(=O)/C=C/CN(C)C)c1 [Example 64] | ≤ 1000 | ≤ 100
C=CC(=O)N(C)c1cncc(-c2cnc3[nH]cc(-c4cccc(C#N)c4)c3c2)c1 [Example 66, N-(5-(3-(3-cyano-phenyl)-1H-pyrrolo[2,3-b]-pyridin-5-yl)-pyridin-3-yl)-N-methylacrylamide] | ≤ 1000 | ≤ 100
CN(C)C/C=C/C(=O)Nc1cccc(-c2cnc3[nH]cc(-c4cncc(C#N)c4)c3c2)c1 [Example 11, (E)-N-(3-(3-(5-cyanopyridin-3-yl)-1H-pyrrolo-[2,3-b]pyridin-5-yl)phenyl)-4-(dimethylamino)-but-2-enamide] | > 5000 | ≤ 100
C=CC(=O)Nc1cncc(-c2cnc3[nH]cc(-c4ccnc(OC)c4)c3c2)c1 [Example 17, N-(5-(3-(2-methoxypyridin-4-yl)-1H-pyrrolo-[2,3-b]pyridin-5-yl)pyridin-3-yl)-acrylamide] | ≤ 1000 | ≤ 100
C=CC(=O)Nc1cc(-c2cnc3[nH]cc(-c4ccnc(C)c4)c3c2)cc(C(F)(F)F)c1 [Example 23, N-(3-(3-(2-methyl-pyridin-4-yl)-1H-pyrrolo[2,3-b]-pyridin-5-yl)-5-(trifluoromethyl)-phenyl)acrylamide] | ≤ 1000 | ≤ 100
CN(C)C/C=C/C(=O)Nc1cncc(-c2cnc3[nH]cc(-c4cccc(C#N)c4)c3c2)c1 [Example 20, (E)-N-(5-(3-(3-cyanophenyl)-1H-pyrrolo[2,3-b]pyridin-5-yl)pyridin-3-yl)-4-(dimethyl-amino)but-2-enamide] | ≤ 1000 | ≤ 100

Reference: patent US10316038B2, “Pyrrolopyrimidine ITK inhibitors for treating inflammation and cancer” (ACLARIS THERAPEUTICS, INC., priority 2017, dated 2019)
